# Where “and” joins values, the source holds several entries; their conditions need not be identical. Equal values may be shown once. Entries after “also recorded” stand apart in the source; their conditions may differ. Where a name gives a salt, the structure may show the parent alone.
# Key:
# [1] = voltage sensitivity testing on the voltage clamped hemispherical lipid bilayer (HLB) apparatus
# [2] = water solubility / deliverability to membranes (in words); type: physicochemical; settings: delivery to the membrane
Compound,voltage sensitivity / voltage dependence in words [1],"ΔF/F per 100 mV in Dynamic Range (mV) ([1]; dynamic range [−100, 0] mV) [%]",τ-off [1] [ms],τ-on [1] [ms],other results
"CCCCN(CCCC)c1ccc2cc(C=Cc3cc[n+](CCCS(=O)(=O)[O-])cc3)ccc2c1 [Di-4-ANEPPS, 4-(2-(6-(dibutylamino)-2-naphthalenyl)ethenyl)-1-(3-sulfopropyl)pyridinium hydroxide inner salt, reference compound]",approximately linear voltage dependence,,,,voltage sensitivity ([1]; approximately linear over a broad range of applied voltage): 12 %/100 mV
CN(CCCCCCCCCCCCNC(=O)CCCCCCCCCCCNC(=O)COCCOCCNC(=O)CCc1c([N+](=O)[O-])cc([N+](=O)[O-])c([N-]c2c([N+](=O)[O-])cc([N+](=O)[O-])cc2[N+](=O)[O-])c1[N+](=O)[O-])c1ccc2cc(/C=C/c3cc[n+](CCOCCOCCO)cc3)ccc2c1 [PY6242],,,,,solubility in words [2]: Low solubility
CN(CCCCCCCCCCCCNC(=O)CCCCCCCCCCCNC(=O)CCc1c([N+](=O)[O-])cc([N+](=O)[O-])c(Nc2c([N+](=O)[O-])cc([N+](=O)[O-])cc2[N+](=O)[O-])c1[N+](=O)[O-])c1ccc2cc(/C=C/c3cc[n+](CCCCS(=O)(=O)[O-])cc3)ccc2c1 [PY6256],,24,,,"ΔF/F per 100 mV in Dynamic Range (mV) ([1]; dynamic range [0, 100] mV): 39%"
CC[N+](CC)(CC)CCC[n+]1ccc(/C=C/c2ccc3cc(N(C)CCCCCCCCCCCCNC(=O)CCCCCCCCCCCNC(=O)CCc4c([N+](=O)[O-])cc([N+](=O)[O-])c(Nc5c([N+](=O)[O-])cc([N+](=O)[O-])cc5[N+](=O)[O-])c4[N+](=O)[O-])ccc3c2)cc1 [TBFQ 15],,,,,"ΔF/F per 100 mV ([1]; no dynamic range printed, electrochromic behavior): 8% and 8 ± 3%"
CC[N+](CC)(CC)CCC[n+]1ccc(/C=C/c2ccc3cc(N(C)CCOCCOCCNC(=O)CCCCCCCCCCCNC(=O)COCCOCCNC(=O)CCc4c([N+](=O)[O-])cc([N+](=O)[O-])c(Nc5c([N+](=O)[O-])cc([N+](=O)[O-])cc5[N+](=O)[O-])c4[N+](=O)[O-])ccc3c2)cc1 [TBFQ 16],high voltage sensitivity,,5 ± 1,11 ± 2,"change in fluorescence/100 mV ([1]; […], dye on the inside, 20 ms voltage steps): 36%; ΔF/F per 100 mV in Dynamic Range (mV) ([1]; dynamic range [−200, −100] mV): 56 ± 13%"
CC[N+](CC)(CC)CCC[n+]1ccc(/C=C/c2ccc3cc(N(C)CCCCCCCCCCCCNC(=O)CCCCCCCCCCCNC(=O)COCCOCCNC(=O)CCc4c([N+](=O)[O-])cc([N+](=O)[O-])c(Nc5c([N+](=O)[O-])cc([N+](=O)[O-])cc5[N+](=O)[O-])c4[N+](=O)[O-])ccc3c2)cc1 [TBFQ 17],better sensitivity than TBFQ 16; also recorded: responses in the physiological range that are larger than any previous fast VSDs,66 ± 15,7 ± 2,12 ± 2,

# Reference: patent US20200362174A1, “COMPOUNDS AND METHODS FOR OPTICAL SENSING OF ELECTRICAL ACTIVITY IN BIOLOGICAL SYSTEMS” (UNIVERSITY OF CONNECTICUT, priority 2018, published 2020)
